Laboratory results from patent US11192888B2, “Antibacterial compounds” (priority 2017, dated 2021).
Where two headings read alike, the source gives them in different places. *1 amine or outer side, *2 acyl side, *3 side chain or, on linkers, in order; H or OH if unused. Where a SMILES comes first, the peptide text is derived from it. [ ]: non-standard residue; d: D form. dAla(ψthiazole) = C[C@@H](N[*:1])c1nc(C(=O)[*:2])cs1; Trp(4-Br) = N[C@@H](Cc1c[nH]c2cccc(Br)c12)C(=O)O; Trp(4-Cl) = N[C@@H](Cc1c[nH]c2cccc(Cl)c12)C(=O)O; Trp(4-OMe) = COc1cccc2[nH]cc(C[C@H](N)C(=O)O)c12; X1 = O=C(/C(=C/c1ccccc1)N[*:1])[*:2]; X2 = CC(C)/C=C(\N[*:1])C(=O)[*:2]; ΔVal = CC(C)=C(N)C(=O)O; Dha = C=C(N)C(=O)O; Sar = CNCC(=O)O

Key:
P. aeruginosa PAO1 = settings: for IC50 / % Growth inhibition at 100 μM: PAO1, 13 h; for activity against P. aeruginosa in comparison to the Dha containing compound 3: PAO1
B. multivorans ATCC17616 = settings: ATCC17616, 25 h
Strep. pyogenes = settings: 13 h
[1] = test system: Clostridium difficile 630Δerm; settings: 13 h
[2] = test system: clinical isolates and one wild-type strain of P. aeruginosa; experiment: Growth of P. aeruginosa clinical isolates and wild-type strain with compounds (FIG. 1); assay type: cell-based, Pseudomonas aeruginosa; settings: isolates W4, W14, W23, W46 and PAO1; MH media, 13 hours (FIG. 1)
Experimental: FIGS. 1a and 1b are graphs showing the effects of varying concentrations of compounds 2 and 3 according to the invention on the growth of different strains of P. aeruginosa in Müller-Hinton (MH) media, after 13 hours.
The antibacterial activity of compounds 2 and 3 were tested against clinical isolates and one wild-type strain of P. aeruginosa displaying varying antibiotic sensitivity.
The antibacterial activity of compounds 2 and 3 were tested against these clinical isolates and one wild-type strain of P. aeruginosa.

Strep. agalactiae = settings: 13 h
[3] = amide bond, 24-membered ring, PyBOP/HOBt/DIPEA, 0.5 mM
[4] = test system: C. difficile ATCC 43255 (aka VPI 10463; ribotype 087); experiment: Mouse model of C. difficile-associated disease; assay type: in vivo, C57BL/6 mice

| SMILES | IC50 (P. aeruginosa PAO1) [µM] | % Growth inhibition at 100 μM (P. aeruginosa PAO1) [%] | IC50 (B. multivorans ATCC17616) [µM] | activity against P. aeruginosa in comparison to the Dha containing compound 3 (P. aeruginosa PAO1) | also measured |
| --- | --- | --- | --- | --- | --- |
| C=C1NC(=O)[C@@H](C)NC(=O)CNC(=O)[C@H](Cc2c[nH]c3cccc(OC)c23)NC(=O)[C@H](Cc2c[nH]c3ccccc23)NC(=O)c2csc(n2)[C@@H](C)NC(=O)CN(C)C1=O [Argyrin A, Cyclo[D-Ala-Thz-Trp-Trp(4-MeO)-Gly-D-Ala-Dha-Sar], reference compound] (cyclo(W[Trp(4-OMe)]G[dA][Dha][Sar][dAla(ψthiazole)])) | 19.8 ± 1.6 | 82.6 ± 7.4 | 3.1 ± 1.7 |  |  |
| C=C1NC(=O)[C@@H](C)NC(=O)CNC(=O)[C@H](Cc2c[nH]c3cccc(Cl)c23)NC(=O)[C@H](Cc2c[nH]c3ccccc23)NC(=O)c2csc(n2)[C@@H](C)NC(=O)CN(C)C1=O [Compound 2, Cyclo[D-Ala-Thz-Trp-Trp(4-Cl)-Gly-D-Ala-Dha-Sar]] (cyclo([Dha][Sar][dAla(ψthiazole)]W[Trp(4-Cl)]G[dA])) | 16.8 ± 2.9 | 87.0 ± 1.0 | 2.9 ± 2.5 |  | IC50 (Strep. pyogenes): > 100 µM; IC50 [1]: 0.18 ± 0.03 µM; susceptibility of the isolates to the compound [2]: equally susceptible; IC50 (Strep. agalactiae): > 100 µM |
| C[C@H]1NC(=O)CNC(=O)[C@H](Cc2c[nH]c3cccc(Br)c23)NC(=O)[C@H](Cc2c[nH]c3ccccc23)NC(=O)c2csc(n2)[C@@H](C)NC(=O)CN(C)C(=O)/C(=C/c2ccccc2)NC1=O [Compound 12, Cyclo[D-Ala-Thz-Trp-Trp(4-Br)-Gly-D-Ala-Dhp-Sar]] (cyclo(G[dA][X1][Sar][dAla(ψthiazole)]W[Trp(4-Br)])) | > 100 | 20.1 ± 5.4 | 1.1 ± 0.2 | dramatic loss in activity |  |
| CC(C)=C1NC(=O)[C@@H](C)NC(=O)CNC(=O)[C@H](Cc2c[nH]c3cccc(Br)c23)NC(=O)[C@H](Cc2c[nH]c3ccccc23)NC(=O)c2csc(n2)[C@@H](C)NC(=O)CN(C)C1=O [Compound 13, Cyclo[D-Ala-Thz-Trp-Trp(4-Br)-Gly-D-Ala-Dhv-Sar]] (cyclo(G[dA][ΔVal][Sar][dAla(ψthiazole)]W[Trp(4-Br)])) | 12.2 ± 0.2 | 85.1 ± 3.4 | 1.54 ± 0.2 | did not result in a notable change in activity |  |
| CC(C)/C=C1\NC(=O)[C@@H](C)NC(=O)CNC(=O)[C@H](Cc2c[nH]c3cccc(Br)c23)NC(=O)[C@H](Cc2c[nH]c3ccccc23)NC(=O)c2csc(n2)[C@@H](C)NC(=O)CN(C)C1=O [Compound 14, Cyclo[D-Ala-Thz-Trp-Trp(4-Br)-Gly-D-Ala-Dhl-Sar]] (cyclo(G[dA][X2][Sar][dAla(ψthiazole)]W[Trp(4-Br)])) | > 100 | 40.1 ± 6.8 | 0.98 ± 0.1 | dramatic loss in activity |  |
| C/C=C1\NC(=O)[C@@H](C)NC(=O)CNC(=O)[C@H](Cc2c[nH]c3cccc(Br)c23)NC(=O)[C@H](Cc2c[nH]c3ccccc23)NC(=O)c2csc(n2)[C@@H](COC)NC(=O)CN(C)C1=O [Cyclo[D-Ser(OMe)-Thz-Trp-Trp(4-Br)-Gly-D-Ala-Dhb-Sar]] |  |  |  |  | ring closure, yield after HPLC ([3]; from H-dSer(OMe)-Thz-Trp-Trp(4-Br)-Gly-dAla-Dhb-Sar-OH?): 19% |
| C=C1NC(=O)[C@@H](C)NC(=O)CNC(=O)[C@H](Cc2c[nH]c3cccc(Cl)c23)NC(=O)[C@H](Cc2c[nH]c3ccccc23)NC(=O)c2csc(n2)[C@@H](CO)NC(=O)CN(C)C1=O [Cyclo[D-Ser-Thz-Trp-Trp(4-C1)-Gly-D-Ala-Dha-Sar]] |  |  |  |  | ring closure, yield after HPLC ([3]; from H-dSer-Thz-Trp-Trp(4-Cl)-Gly-dAla-Dha-Sar-OH?): 4% |
| CCc1c(Cl)c(O)c(Cl)c(O)c1C(=O)O[C@H]1[C@H](O)[C@H](OC)[C@H](OC/C2=C\C=C\C[C@H](O)/C(C)=C/[C@H](CC)[C@@H](O[C@@H]3OC(C)(C)[C@@H](OC(=O)C(C)C)[C@H](O)[C@@H]3O)/C(C)=C/C(C)=C/C[C@@H]([C@@H](C)O)OC2=O)O[C@@H]1C [Fidaxomicin, reference compound] |  |  |  |  | survival to the end of the study at day-21 post-infection ([4]; 2.5 mg/kg): survived to the end of the study; Mean survival ([4]; 2.5 mg/kg oral BD for 5 days): 504.00 h |
| c1cc(-c2nc3ccc(-c4ccc5nc(-c6ccncc6)[nH]c5c4)cc3[nH]2)ccn1 [SMT19969, reference compound] |  |  |  |  | Mean survival ([4]; 20 mg/kg oral BD for 5 days): 88.00 h |
